Assays:
Assay in all cases: NCI in vitro 60-cell drug screen (SRB assay)
Assay type in all cases: cell-based
[1] = tested on: ACHN; details: ACHN (Renal cancer); 10^-5 molar concentration; 48 hours
[2] = tested on: T-47D; details: T-47D (Breast cancer); 10^-5 molar concentration; 48 hours
[3] = tested on: BT-549; details: BT-549 (Breast cancer); 10^-5 molar concentration; 48 hours
[4] = tested on: OVCAR-3; details: OVCAR-3 (Ovarian cancer); 10^-5 molar concentration; 48 hours
[5] = tested on: RXF 393; details: RXF 393 (Renal cancer); 10^-5 molar concentration; 48 hours
[6] = tested on: NCI-H460; details: NCI-H460 (Non-small cell lung cancer); 10^-5 molar concentration; 48 hours
[7] = tested on: SF-268; details: SF-268 (CNS cancer); 10^-5 molar concentration; 48 hours
[8] = tested on: SF-539; details: SF-539 (CNS cancer); 10^-5 molar concentration; 48 hours
[9] = tested on: HCT-116; details: HCT-116 (Colon cancer); 10^-5 molar concentration; 48 hours
[10] = tested on: U251; details: U251 (CNS cancer); 10^-5 molar concentration; 48 hours
[11] = tested on: DU-145; details: DU-145 (Prostate cancer); 10^-5 molar concentration; 48 hours
[12] = tested on: SK-MEL-5; details: SK-MEL-5 (Melanoma); 10^-5 molar concentration; 48 hours
[13] = tested on: MOLT-4; details: MOLT-4 (Leukemia); 10^-5 molar concentration; 48 hours
[14] = tested on: NCI/ADR-RES; details: NCI/ADR-RES (Ovarian cancer); 10^-5 molar concentration; 48 hours
[15] = tested on: OVCAR-4; details: OVCAR-4 (Ovarian cancer); 10^-5 molar concentration; 48 hours
[16] = tested on: NCI-H522; details: NCI-H522 (Non-small cell lung cancer); 10^-5 molar concentration; 48 hours
[17] = tested on: A549/ATCC; details: A549/ATCC (Non-small cell lung cancer); 10^-5 molar concentration; 48 hours
[18] = tested on: UACC-62; details: UACC-62 (Melanoma); 10^-5 molar concentration; 48 hours
[19] = tested on: NCI-H23; details: NCI-H23 (Non-small cell lung cancer); 10^-5 molar concentration; 48 hours
[20] = tested on: HCT-15; details: HCT-15 (Colon cancer); 10^-5 molar concentration; 48 hours
[21] = tested on: OVCAR-5; details: OVCAR-5 (Ovarian cancer); 10^-5 molar concentration; 48 hours
[22] = tested on: NCI-H226; details: NCI-H226 (Non-small cell lung cancer); 10^-5 molar concentration; 48 hours
[23] = tested on: K-562; details: K-562 (Leukemia); 10^-5 molar concentration; 48 hours
[24] = tested on: HL-60(TB); details: HL-60(TB) (Leukemia); 10^-5 molar concentration; 48 hours
[25] = tested on: IGROV1; details: IGROV1 (Ovarian cancer); 10^-5 molar concentration; 48 hours
[26] = tested on: SW-620; details: SW-620 (Colon cancer); 10^-5 molar concentration; 48 hours
[27] = tested on: CCRF-CEM; details: CCRF-CEM (Leukemia); 10^-5 molar concentration; 48 hours
[28] = tested on: EKVX; details: EKVX (Non-small cell lung cancer); 10^-5 molar concentration; 48 hours
[29] = tested on: MCF7; details: MCF7 (Breast cancer); 10^-5 molar concentration; 48 hours
[30] = tested on: 786-0; details: 786-0 (Renal cancer); 10^-5 molar concentration; 48 hours
[31] = tested on: SK-MEL-2; details: SK-MEL-2 (Melanoma); 10^-5 molar concentration; 48 hours
[32] = tested on: MDA-MB-435; details: MDA-MB-435 (Melanoma); 10^-5 molar concentration; 48 hours
[33] = tested on: COLO 205; details: COLO 205 (Colon cancer); 10^-5 molar concentration; 48 hours
[34] = tested on: A498; details: A498 (Renal cancer); 10^-5 molar concentration; 48 hours
[35] = tested on: SK-OV-3; details: SK-OV-3 (Ovarian cancer); 10^-5 molar concentration; 48 hours

Compound	Growth percent [1] [%]	Growth percent [2] [%]	Growth percent [3] [%]	Growth percent [4] [%]	Growth percent [5] [%]	Growth percent [6] [%]	Growth percent [7] [%]	Growth percent [8] [%]	Growth percent [9] [%]	Growth percent [10] [%]	Growth percent [11] [%]	Growth percent [12] [%]	Growth percent [13] [%]	Growth percent [14] [%]	Growth percent [15] [%]	Growth percent [16] [%]	Growth percent [17] [%]	Growth percent [18] [%]	Growth percent [19] [%]	Growth percent [20] [%]	also measured
O=C(O)c1c(Sc2ccc(Cl)cc2)c(O)nc2ccccc12 [Compound 2, 3-((4-Chlorophenyl)thio)-2-hydroxyquinoline-4-carboxylic acid]	113.47	99.59	124.20	121.29	113.90	104.20	113.60	110.22	103.87	99.59	115.22	98.07	97.25	97.75	98.41	81.64	107.34	102.05	92.61	107.80	Growth percent [21]: 112.47%; Growth percent [22]: 105.64%; Growth percent [23]: 112.29%; Growth percent [24]: 105.63%; Growth percent [25]: 103.57%; Growth percent [26]: 96.92%; Growth percent [27]: 98.31%; Growth percent [28]: 89.47%; Growth percent [29]: 91.95%; Growth percent [30]: 104.44%; Growth percent [31]: 119.91%; Growth percent [32]: 102.02%; Growth percent [33]: 108.65%
O=c1c2cc(Cl)ccc2sc2c(N3CCOCC3)nc3ccccc3c12 [Compound 13, 10-Chloro-6-morpholino-12H-thiochromeno[2,3-c]quinolin-12-one]	82.54	80.00	113.81	96.54	108.61	99.28	103.56	82.38	85.71	98.58	110.81	95.88	89.31	98.16	96.75	89.60	92.97	87.86	95.21	93.81	Growth percent [34]: 94.15%; Growth percent [21]: 95.97%; Growth percent [22]: 88.01%; Growth percent [23]: 81.18%; Growth percent [24]: 93.38%; Growth percent [25]: 80.90%; Growth percent [35]: 77.18%; Growth percent [26]: 96.18%; Growth percent [27]: 88.02%; Growth percent [29]: 50.59%; Growth percent [30]: 99.31%; Growth percent [31]: 98.77%; Growth percent [32]: 102.07%; Growth percent [33]: 99.24%

From patent EP3002287B1, “Thiochromeno[2,3-c]quinolin-12-one derivatives and their use as topoisomerase inhibitors” (National Defense Medical Center, priority 2014, dated 2016)
